Marks after values point to notes of the source that are not given here.
What was measured:
Assay type in all cases: in vivo, CD-1 mice
[1] = tested on: Ionized calcium-binding adaptor molecule-1; assay: IBA-1 immunofluorescence (microglia proliferation); settings: SG-fed group over time, 35 to 52 wk
Protocol: (§1) The synthetic SG was mixed with finely ground Purina Chow mouse pellets (Mouse Diet™, Purina) to create the experimental pellets with a SG content of 1000 µg per pellet. Dry materials were blended with a sterile silicon spatula. For every 5 g of standard feed, 2.5 mL of doubly-distilled water (dd)H2O was added and the dough was kneaded and round up into pellets. A single sterol glucoside containing pellet was placed in the feeding tray each morning before the addition of regular mouse chow (ad libitum). All experimental pellets were entirely consumed by the mice each day. Control mice were fed standard mouse chow pellets of identical weight with no additives. SG feeding was conducted daily for 15 weeks and mice were behaviorally monitored until sacrifice at 35 weeks (time point 1) or 52 weeks (time point 2).
(§2) Tissue-mounted slides were processed for fluorescence microscopy as follows: Sections were rinsed in coplin jars for 45 minutes at room temperature (RT) in three changes of PBS. Sections were then incubated at RT for 30 minutes in a blocking permeabilization solution made of 5% normal goat serum (NGS), 5% normal rabbit serum (NRS) or 5% BlokHen II (Aves Labs, Inc., Tigard, OR), 0.05% Triton X-100 and PBS. Subsequently, the blocking solution was tipped off and the slides were rinsed in PBS for 2 minutes. […]

[2] = tested on: Activating transcription factor-3; assay: Activating transcription factor-3 immunofluorescence; settings: for Anti-ATF-3: SG-fed vs control
Protocol: as §1, §2

[3] = tested on: Lipid deposits; assay: Oil red O histochemistry (lipid deposits)
Protocol: as §1
Tissue-mounted slides were processed to evaluate lipid distribution with light microscopy with a protocol adapted from Dr. Roy Ellis (IMVS Division of Pathology, The Queen Elizabeth Hospital, Woodville, South Australia). First, an oil red O stock solution was prepared 2 hours prior to execution of the histochemical procedures. The oil red O stock stain solution was made by mixing oil red O (0.5 g, Sigma-Aldrich, Oakville, ON, Canada) and isopropanol (100 mL, Fisher Scientific, Nepean, ON, Canada) over a 40°C water bath. Immediately prior to beginning the oil red O histochemical procedures, the oil red O working solution was made by combining 20 mL of distilled water for every 30 mL of oil red O stock stain solution. […] Slide-mounted sections were rinsed in coplin jars for 15 minutes at RT in three changes of PBS. Sections were then rinsed at RT with 60% isopropanol for 5 minutes. The spinal cord sections were then stained with a freshly prepared working solution of oil red O for 20 minutes and then rinsed with 60% isopropanol. Nuclear counterstaining was achieved by staining the sections with haematoxylin (haematoxylin, 7211, Richard Allan Scientific, Kalamazoo, MI, USA) for 1 minute. Finally, the sections were rinsed with distilled water, dried under a fume hood and cover-slipped with Entellen (Merck, Darmstadt, Germany).
The numbers of immunoreactive somata or inclusions were counted across the ventral horn of the spinal cord, across brain hemispheres, or per dorsal or ventral root with the 40x objective lens in a 600 µm / 600 µm area within region perimeters defined by a mouse brain atlas (2001). For each animal, eight cross-sections per spinal cord or brain region were studied. An average of both the right and left ventral horn for each of the eight cross sections was generated giving a final averaged number for each animal in each of the spinal cord areas. For quantification of the level of mitochondrial activity (cytochrome c oxidase labelling) in the lumbar spinal cord or tyrosine hydroxylase immunoreactivity in the substantia nigra pars compacta and striatal sections, images captured using the Motic B5 Professional Series 3.0 microscope (Motic Instruments Inc., Richmond, ON) and analyzed using Motic B5 Professional, Motic Images Advanced 3.0 (Motic Instruments Inc., Richmond, ON) were scanned into a TIFF format file and analysed using the NIH Image J 1.37 software to measure density levels of antibody labelling. Eight to 12 sections from each mouse per region of interest were included.

CCC(C=CC(C)C1CCC2C3CC=C4CC(OC5OC(CO)C(O)C(O)C5O)CCC4(C)C3CCC12C)C(C)C (stereo not shown) [SG]
Anti-IBA-1 immunoreactive cells [1]: Anti-IBA-1 immunoreactive cells (SG-fed group over time) (ns)
Anti-ATF-3 immunoreactive cells ([2]; SG-fed group over time, 35 to 52 wk): Anti-ATF-3 immunoreactive cells (SG-fed group over time): -48%***
Anti-ATF-3 ([2]; time-point 1, 35 wk): Anti-ATF-3:+242%***
Anti-ATF-3 ([2]; time-point 2, 52 wk): Anti-ATF-3:+101%**
accumulation of lipid deposits over time, lumbar spinal cord ([3]; SG-fed animals, 35 to 52 weeks): did not experience an accumulation of deposits over time
lipid deposits, time-dependent effects in the dorsal or ventral roots ([3]; SG-fed animals, 35 to 52 weeks): did not show time-dependent effects
Lipid deposits, DR ([3]; SG-fed over time, 35 to 52 wk): SG-fed DR over time: ns, p=0.8062
Lipid deposits, Lsc ([3]; SG-fed over time, 35 to 52 wk): SG-fed Lsc over time: ns, p=0.4864
Lipid deposits, VR ([3]; SG-fed over time, 35 to 52 wk): SG-fed VR over time: ns, p=0.5478
lipids in the dorsal roots ([3]; SG-fed vs control, 35 weeks): not significant
lipids in the ventral spinal roots ([3]; SG-fed vs control, 35 weeks): +10%
lipid deposits, inter-group differences in lumbar spinal cord, dorsal root, ventral root ([3]; SG-fed vs control, 52 weeks): statistically significant inter-group differences were not found
Lipids deposits Lsc VH ([3]; SG-fed vs control, time-point 2, 52 wk): Lipids deposits Lsc VH: +10%*

— patent EP2181589A1, “Neurotoxic sterol glycosides” (Shaw, Christopher Ariel, priority 2008, dated 2010)
